Test results taken from patent publication US20070009444A1, “Method for preparing powder exhibiting low susceptibility to electrification” (priority 2003, published 2007).

Legend:
Type in all cases: physicochemical
[1] = Measurement of charge amount (Espartoanalyzer, sample mixed with iron powder 1:9, 500 V); settings: for Average of charge: average of two measurements
From the text: In the present specification, the term “lowly-charged powder” means powder in which negative charge of surface potential is reduced (powder unsusceptible to negative charge) and encompasses positively charged powder. Concretely, it means powder having an average electric charge, measured with a particle charge distribution measuring device (for example, particle charge distribution measuring device using Laser Doppler speed meter), of not less than −2 q/m (namely, electric charge is negative and its absolute value is not more than 2, or electric charge is zero or positive value), preferably of not less than −1 q/m. The average electric charge is preferably not more than +5, more preferably not more than +3, and most preferably not more than +1. Measurement of electric charge may be conducted according to a manual of the device, and a condition and a measuring device are not particularly limited. For instance, after mixing a compound to be measured and iron powder in a ratio of about 1:9, about 1 g of mixture is collected. […]
400 mg of the acetaminophen powder containing PEG4000 (Acetaminophen:PEG=32:1, PEG adding ratio 0.03) obtained in Example 1 and 3600 mg of iron powder (TEFV-200/300 (registered trademark, Powdertech) as a carrier were filled into a glass vessel, and the mixture was mixed by hands for ten seconds. About 1 g of thus-obtained sample (true density of the particles: 1.20 g/cm^3) were collected and the charge amount was measured using Espartoanalyzer (Hosokawa Micron company). […]
Charge amount of the acetaminophen powder (without adding PEG) was measured by the same method as described above as a control (numbers of particles: 500).
Charge amount of each sample was measured twice and the average of the results are shown below.
Charge amount of the following samples were measured by the same method as Experiment 1. • i) 300 mg of Compound (I-1) […]

[2] = Measurement of bulk density (3 cc vessel, tapped three times)
From the text: As an index for charge suppression of the obtained powder, bulk. density of the powder may be examined rather than measuring surface potential of the powder. […] When the bulk density is not less than 0.25 g/cc, preferably 0.28 g/cc, suction by a machine and transfer from a filling machine to a filling vessel may be conducted favorably, and a certain operability must be secured. The bulk density is a value determined in the manner as described below. First, 3 cc of sample to be measured is put into a vessel, and then the vessel is lightly tapped several to 10 times, preferably about 3 times. When the bulk is reduced, powder is supplemented, and this operation is repeated. At the time when the bulk no longer changes, a sample weight per 1 cc is determined. The bulk density of lowly-charged powder determined in the method of the present invention is 1.5 times or more, preferably 1.6 times or more, and further preferably 1.8 times or more the “bulk density of highly-charged compound”, “bulk density of powder obtained by drying a liquid composition containing a highly-charged compound and an additive other than PEG” or “bulk density of powder obtained by drying a liquid composition containing a pharmaceutically active compound”.
The bulk density of the acetaminophen powder containing PEG4000 (PEG adding ratio 0.03) obtained in Example 1 and the Compound (I-1) powder containing PEG4000 obtained in Example 2 were measured.
The powder was added to a vessel to reach the scale of 3 cc in a dry box and tapped three times. When the bulk is reduced, powder is added to the vessel to reach the scale of 3 cc and the same operation was repeated.
When the bulk no longer changed at 3 cc, addition of the powder was stopped and the bulk density (g/cc) was measured at that time.
Bulk densities of the acetaminophen powder (without adding PEG) and the Compound (I-1) powder (without adding PEG) were measured by the same method as controls.

[3] = Observation of spray dried powder (transit performance, coloring, operability)
Method: Acetaminophen and PEG4000 were mixed at the following ratio: acetaminophen-PEG4000=2.8 g-701 mg (Mixed ratio 4:1, PEG adding ratio 0.25 (weight of PEG (mg) relative to 1 mg of pharmaceutical active compound)), acetaminophen-PEG4000=2.8 g-351 mg (Mixed ratio 8:1, PEG adding ratio 0.125), acetaminophen-PEG4000=2.8 g-176 mg (Mixed ratio 16:1, PEG adding ratio 0.06), and acetaminophen-PEG4000=14 g-437 mg (Mixed ratio 32:1, PEG adding ratio 0.03). The final concentration of acetaminophen was adjusted to 1.4% by weight by adding suitable amount of water and the solution was spray dried under the conditions mentioned below.
FIG. 1 is a photograph of the acetaminophen powder (PEG adding ratio 0.03) and FIG. 2 is a photograph of the acetaminophen powder(without adding PEG). • Spray drying condition • Spray dryer: Spray dryer SD-1000 (Tokyo Rikakikai Co., Ltd.) • Speed of pump: scale 30 (about 6 mL/min) • IN-let temperature: 170° C. • Out-let temperature: 95 to 100° C. • Drying air volume: 0.60 m^3/min • Spray drying pressure: 70 kPa
Compound (I-1) powder was manufactured by a similar manner to Example 2 except that PEG400 (111 mg) (PEG adding ratio 0.37) was used instead of PEG4000 and the final concentration of Compound (I-1) in the solution was adjusted to 19% by weight. […]

[4] = Measurement of dissolution time (powder in 10 ml distilled water for injection, vial shaken)
Method: The dissolving time is determined by shaking a vessel containing 300 mg of sample to be measured and 10 mL of water. In the case of pharmaceuticals, the sample to be measured should contain 300 mg of pharmaceutically active compound, and may contain a pharmaceutical additive. The shaking manner and time are not particularly limited. Concretely, measurement may be conducted according to the method described in Test example 3 described later.
The Compound (I-1) powder containing PEG (about 300 mg) which was obtained in Example 2 or 3 was filled in a vial (the capacity to the shoulder is 20 ml). After 10 ml of distilled water for injection was added to the vial, the vial was shaken 20 times (arm length: about 20 centimeters, the amplitude: […] and shaking speed: 20 times/ten seconds), and the dissolution time was measured.
(§1) 300 mg of Compound (I-l) and 150 mg of D-mannitol were mixed with suitable amount of sodium hydroxide. The solutions having various concentration (pH 9.5 to 9.75) were prepared. Thus-obtained solutions were spray dried under the same conditions as Example 1. The dissolution time of the obtained powder was measured by the same method as the above-mentioned Experiment 3. The particle diameter was measured under the following conditions. • Measuring condition of dry powder tester • Dry powder tester: SK Laser micron sizer LMS-30 (SEISHIN ENTERPRISE Co., Ltd.) • Carrier fluid: compressed air […] • Sample: about 20 to 30 mg

[5] = Particle diameter by dry powder tester (SK Laser micron sizer LMS-30); settings: no PEG, with D-mannitol and NaOH, spray dried
Method: The method of measuring “average particle size” used herein is not particularly limited, and measurement may be conducted in accordance with a manual of the particle size meter to be used. For example, about 20 to 30 mg of powder to be measured for its diameter is taken, and placed in the particle size meter for conducting measurement.
as §1

Row | Average of charge ([1]; acetaminophen powder spray dried with PEG4000, PEG adding ratio 0.03) [q/m] | Average of charge ([1]; acetaminophen powder without adding PEG, ratio 0) [q/m] | Bulk density ([2]; solution 1.4% by weight, PEG4000, PEG adding ratio 0.03, spray dried) [g/cc] | Bulk density ([2]; solution 1.4% by weight, without adding PEG, spray dried) [g/cc] | Coloring of powder ([3]; spray dried solution containing only acetaminophen, without adding PEG (control)) | Coloring of powder ([3]; spray dried with PEG4000, PEG adding ratio 0.25, 0.125, 0.06, 0.03 (all samples)) | Structure (SMILES) | Electric charge ([1]; Experiment 2; i) non-additive, 3000 particles; ii) PEG4000 + D-mannitol, PEG adding ratio 0.4, 505 particles) [q/m] | Bulk density ([2]; solution 18% by weight, PEG4000, PEG adding ratio 0.37, spray dried) [g/cc] | Bulk density ([2]; solution 18% by weight, without adding PEG, spray dried) [g/cc] | Dissolution time ([4]; no PEG, with D-mannitol and NaOH, solution 5% by weight (pH 9.5), spray dried) [s] | Dissolution time ([4]; no PEG, with D-mannitol and NaOH, solution 10% by weight, spray dried) [s] | Dissolution time ([4]; no PEG, with D-mannitol and NaOH, solution 19% by weight (pH 9.75), spray dried) | Dissolution time ([4]; solution before drying 5% by weight, PEG4000, PEG adding ratio 0.37) [s] | Dissolution time ([4]; solution before drying 5% by weight, non-additive, PEG adding ratio 0) [s] | Dissolution time ([4]; solution before drying 19% by weight, PEG400, PEG adding ratio 0.37) [s] | Particle diameter ([5]; solution 5% by weight (pH 9.5)) [μm] | Particle diameter ([5]; solution 10% by weight) [μm] | Particle diameter ([5]; solution 19% by weight (pH 9.75)) [μm]
1 | −1.43 | −12.86 | 0.659 | 0.398 | a little coloring | non-coloring | CC(=O)Nc1ccc(O)cc1 [Acetaminophen, acetaminophen] | – | – | – | – | – | – | – | – | – | – | – | –
2 | – | – | – | – | – | – | CC1(C)CC[C@]2(C(=O)[O-])CC[C@]3(COC(=O)/C=C/c4cc(O)ccc4NC(=O)/C=C/C(=O)[O-])C(=CC[C@@H]4[C@@]5(C)CCC(=O)C(C)(C)[C@@H]5CC[C@]43C)[C@@H]2C1.[Na+].[Na+] [Compound (I-1)] | −2.57 | 0.395 | 0.206 | 40 | 10 | under 20 second | 10 | 40 | 10 | 8.9 | 10.1 | 11.6
